From patent US7598207B2, “Herbicidal composition” (Sumitomo Chemical Company, Limited, priority 2006, dated 2009)

Key:
Format in all cases: in vivo
crabgrass = assay: Test Example 6: soil-surface granule pot test, herbicidal activity; settings: flumioxazin 25 g/ha; granules on soil surface; 14 days after application
Excerpt: (§1) Plastic pots each having a diameter of 21 cm and a height of 20 cm were filled with upland soil, and then planted with potato and seeded with barnyardgrass, crabgrass and ivyleaf morningglory. Next day, on the surface of the soil of the above-mentioned plastic pots, Flumioxazin granules (granules containing 0.25% of flumioxazin, commercial name: Broad Star, produced by Valent U.S.A.), granules containing 0.9% of Compound [I] (prepared according to Formulation example 9), and a mixture of the Flumioxazin granules with the granules containing Compound [I] were applied with hand in a designated amount given by Table 6.
(§2) The herbicidal activity and phytotoxicity against the vegetable were examined 14 days after the application.

barnyardgrass [1] = assay: as above; settings: flumioxazin 25 g/ha; granules on soil surface; 14 days after application
Excerpt: as §1, §2

ivyleaf morningglory = assay: as above; settings: flumioxazin 25 g/ha; granules on soil surface; 14 days after application
Excerpt: as §1, §2

yellow nutsedge = assay: Test Example 3: soil-surface spray pot test, herbicidal activity; design: key: 0: there is no or little difference in the degree of growth between treated plants and untreated plants at the time of observation; 7: show excellent herbicidal activity; 8: show excellent herbicidal activity; 9: show excellent herbicidal activity; 10: the test plants die completely or their growth is completely inhibited; settings: 21 days after application
Excerpt: Plastic pots each having a width of 32 cm, a depth of 22 cm and a height of 8 cm were filled with upland soil, and then planted with a tuber of yellow nutsedge. Next day, Flumioxazin WDG (water dispersible granules containing 51% of flumioxazin, commercial name: Valor SX, produced by Valent U.S.A.), emulsifiable concentrate containing Compound [I] (prepared by dissolving Compound [I] with acetone containing Tween 20 (surfactant, sorbitan monolaurate polyglycol ether)) and a mixture thereof was diluted with a designated amount of water, and applied uniformly on the surface of the soil with a small sprayer.
The treated plants were grown in the greenhouse. The herbicidal activity and phytotoxicity against the crop were examined 21 days after the application.

barnyardgrass [2] = assay: Test Example 1: soil-surface granule pot test, herbicidal activity; settings: flumioxazin 40 g/ha; granules on soil surface; 48 days after application
Excerpt: (§3) Plastic pots each having a diameter of 18 cm and a height of 14 cm were filled with upland soil, and then seeded with wheat and barnyardgrass. On the surface of the soil of the above-mentioned plastic pots, Flumioxazin granules (granules containing 0.25% of flumioxazin, commercial name: Broad Star, produced by Valent U.S.A.), granules containing Compound [I] (prepared by using one part of Compound [I], 0.5 part of Neocol YSK, 2 parts of Toxanon GR31A, 30 parts of Kunigel VI and 66.5 parts of calcium carbonate according to Formulation example 9), and a mixture of the Flumioxazin granules with the granules containing Compound [I] were applied with hand in a designated amount given by Table 1.
(§4) The treated plants were grown in the greenhouse. The herbicidal activity and phytotoxicity against the crop were examined 48 days after the application.

potato = assay: Test Example 6: soil-surface granule pot test, phytotoxicity against vegetable; settings: flumioxazin 25 g/ha; granules on soil surface; 14 days after application
Excerpt: as §1, §2

wheat = assay: Test Example 1: soil-surface granule pot test, phytotoxicity against crop; settings: flumioxazin 40 g/ha; granules on soil surface; 48 days after application
Excerpt: as §3, §4

C#CCN1C(=O)COc2cc(F)c(N3C(=O)C4=C(CCCC4)C3=O)cc21 [flumioxazin, N-(7-fluoro-3,4-dihydro-3-oxo-4-prop-2-ynyl-2H-1,4-benzoxadin-6-yl)cyclohex-1-ene-1,2-dicarboxamide]
Herbicidal activity Crabgrass (crabgrass): 5
Herbicidal activity Barnyardgrass (barnyardgrass [1]): 1
Herbicidal activity Ivyleaf morningglory (ivyleaf morningglory): 1
Herbicidal activity Yellow nutsedge (yellow nutsedge; flumioxazin 25 g/ha): 0
Herbicidal activity Yellow nutsedge (yellow nutsedge; flumioxazin 50 g/ha): 1
Herbicidal activity Barnyardgrass (barnyardgrass [2]): 4
Phytotoxicity against vegetable Potato (potato): No damage
Phytotoxicity against crop Wheat (wheat): No damage
